Test results reported in patent US11612586B2, “Indole regulation of antigen presenting cells” (THE TEXAS A&M UNIVERSITY SYSTEM, priority 2016, dated 2023).

Legend:
[1] = tested on: IL-6; experiment: IL-6 production in splenic CD11c+ DCs ex vivo; settings: indole overnight, LPS or heat-killed S. typhimurium
Experimental: Cultures were then stained for CD11c and intracellular TNF, IL-6, and IL-12. Analysis was confined to CD11c+ DCs and maximal cytokine production was normalized to solvent control (DMF).
Production of pro-inflammatory cytokines in CD11c+ DCs was assessed via flow cytometry.
All primary cells were cultured in RPMI 1640 supplemented with 2-mercaptoethanol, gentamicin, penicillin, streptomycin, and 10% FCS (all from Life Technologies). […] Stimulation of dendritic cells at the given concentrations of LPS or heat-killed S. typhimurium were performed for 4 hours (DC2.4 and BMDCs) or 6 hours (primary splenic DCs) in the presence of GolgiPlug protein transport inhibitor (BD Biosciences) to measure cytokine production, or for 24 hours (co-stimulatory markers).

[2] = tested on: IL-10; experiment: IL-10 production by BMDC cultures (ELISA); assay type: cell-based, mouse; settings: indole-conditioned DCs
Experimental: To determine whether this was a specific downregulation of pro-inflammatory cytokines, production of the canonical DC-produced anti-inflammatory cytokines, IL-10 and TGF-β, was also examined.
Cytokine concentration in the supernatant of BMDC cultures was assessed using commercially available ELISA kits for IL-10 (Peprotech) and TGF-β (eBioscience) per the manufacturer's instructions.

[3] = tested on: Th2 cells; experiment: Th2 differentiation in DC-T cell co-culture; assay type: cell-based, mouse; settings: co-culture with DCs conditioned with indole
Experimental: FIGS. 19A-19C graphically illustrate that indole-conditioned DCs inhibit Th1, Th2, and Th17 differentiation. Naïve CD4+CD25-T cells from OT-II TCR transgenic mice were isolated by column purification. Naïve T cells were then co-cultured with OVA323-339 peptide-loaded BMDCs for 72 hours in the presence or absence of lineage-skewing cytokines (described in methods). BMDCs were previously treated with indole, RA, or DMF from day 3. For the last 5 hours of culture, T cells were restimulated with PMA and ionomycin in the presence of Golgiplug, followed by intracellular staining. Cytokine production was determined to assess differentiation of Th1 (FIG. 19A), Th2 (FIG. 19B), and Th17 CD4+T (FIG. 19C) cells. Mean of three independent experiments. * indicates p<0.05 for one-way ANOVA followed by Dunnett's post-test.
In order to determine whether the indole-conditioned DC induction of Tregs was specific to this lineage, additional T cell fates were quieried. Activated CD4+T helper cells are typically divided into the subsets Th1, Th2, Th17, and Treg, based on their expression of transcription factors and pattern of cytokine secretion. The antigen-specific co-culture system was used to investigate these remaining traditional T cell lineages with the addition of an endpoint PMA/Ionomycin stimulation to induce cytokine secretion. […]

[4] = tested on: B220 (CD45R); experiment: B220 surface expression on BMDCs; assay type: cell-based, mouse; settings: BMDCs cultured from day 3 with indole (1 mM) or retinoic acid (1 μM)
Experimental: FIGS. 12A and 12B graphically illustrate that indole induces CCR9 and B220 on DCs. BMDCs were cultured in the presence of indole (1 mM), retinoic acid (1 μM), or DMF solvent control from day 3. On day 7, DCs were surface stained for expression of CCR9 and B220 and analyzed by flow cytometry. […] Mean of three independent experiments. * indicates p<0.05 for one-way ANOVA followed by Dunnett's post-test.
An indole-induced upregulation of the B220 (CD45R) antigen was also observed (FIGS. 12A and 12B), which is widely used to distinguish the plasmacytoid DC lineage and is believed to contribute to gut homing. However, more recently B220 has been reported to distinguish a DC subset more closely developmentally related to conventional rather than plasmacytoid DCs and a precursor to resident CD8+ and CD8− conventional DCs.

[5] = tested on: Akt; experiment: phospho-Akt signaling in BMDMs; assay type: cell-based, mouse
Experimental: The PI3K/Akt and MAPK/Erk signaling pathways regulate many cellular processes including survival, apoptosis, growth, and cytokine production. […] Specifically, BMDMs were treated with indole (1 mM) or DMF control for 18 hours, then stimulated with LPS (10 ug/ml) or CpG (5 uM) for 30 minutes. Cells were stained for phospho-Akt or phospho-Erk and analyzed by flow cytometry.
(§1) The inventors performed a series of assays where bone marrow derived macrophages (BMDMs), bone marrow derived dendritic cells (BMDCs), and splenic dendritic cells (splenic DCs), were exposed to a series of TDMMs, including indole, indole-3-acetate (I3AT), 5-hydroxyindole (5HI), and indole-3-pyruvate (I3P), as well as indole-3-carbinol (I3C; a plant derived compound) to be used for a positive control (1 mM for 24 hours). The BMDMs and BMDCs were stimulated with LPS for 4 hours and assayed at day 7 for expression of various pro-inflammatory cytokines. In a similar assay, the BMDMs and BMDCs were stimulated with LPS or CpG, respectively, for 15 minutes and assayed for pAKT and pERK signaling, which is a reflection of pro-inflammatory response.

[6] = tested on: IL-12; experiment: IL-12 production in BMDCs, intracellular staining, flow cytometry; assay type: cell-based, mouse
Experimental: Intracellular staining was performed to assess TNF (FIG. 3A) and IL-12 (FIG. 3B) production.
Briefly, bone marrow was harvested from femurs of mice and cultured for 7 days in the presence of DC-skewing cytokines, GM-CSF and IL-4. […] The pro-inflammatory cytokines, IL-6 and IL-12, were specifically queried. […] Immune cells communicate largely through the production of soluble factors including cytokines, and DCs detect these signals and determine their effector functions accordingly.
as §1

`c1ccc2[nH]ccc2c1` [Indole, indole] was tested, and the “inhibition of IL-6 production” value [1] was no less than 2 fold, the IL-10 production [2] was “Neither IL-10 nor TGF-β production were affected” and the “development of Th2 lineage” value [3] was “stark inhibition”. The “B220 (CD45R) expression on BMDCs” value [4] was “upregulation”, the pAKT ([5]; 1 mM TDMM 24 hours, LPS 1 ug/ml 15 minutes) was “↓” and the “dampening of pAkt signaling” value ([5]; indole 1 mM 18 hours, LPS (10 ug/ml) or CpG (5 uM) 30 minutes) was “approximately 50%”. The “reduction in IL-12” value ([6]; BMDCs exposed to indole from day 3 of 7 day culture, LPS stimulation) was 40%, the IL-12 ([6]; BMDCs, 1 mM TDMM 24 hours, LPS (1 ug/ml) 4 hours) was “↓↓” and the “inhibition of IL-12 production” value ([6]; BMDCs, indole 24 hours (overnight), LPS 1 ug/ml 4 hours) was no less than 2 fold.
